tested on: IGROV-1; test: Antiproliferative activity against human IGROV-1 cells assessed as cell growth inhibition incubated for 72 hrs by MTT assay; assay type: functional; conditions: not given

| SMILES | GI50 |
| --- | --- |
| COc1ccc(Cn2cc3c(c2-c2cc(OC)c(OC)c(OC)c2)CCc2c(CN4CCCC4)noc2-3)cc1 | 0.89 µM |

tested on: OVCAR-4; test: Antiproliferative activity against human OVCAR-4 cells assessed as cell growth inhibition incubated for 72 hrs by MTT assay; assay type: functional; conditions: not given

| SMILES | GI50 |
| --- | --- |
| COc1ccc(Cn2cc3c(c2-c2cc(OC)c(OC)c(OC)c2)CCc2c(CN4CCCC4)noc2-3)cc1 | 21.4 µM |

tested on: OVCAR-5; test: Antiproliferative activity against human OVCAR-5 cells assessed as cell growth inhibition incubated for 72 hrs by MTT assay; assay type: functional; conditions: not given

| SMILES | GI50 |
| --- | --- |
| COc1ccc(Cn2cc3c(c2-c2cc(OC)c(OC)c(OC)c2)CCc2c(CN4CCCC4)noc2-3)cc1 | 3.2 µM |

tested on: OVCAR-8; test: Antiproliferative activity against human OVCAR-8 cells assessed as cell growth inhibition incubated for 72 hrs by MTT assay; assay type: functional; conditions: not given

| SMILES | GI50 |
| --- | --- |
| COc1ccc(Cn2cc3c(c2-c2cc(OC)c(OC)c(OC)c2)CCc2c(CN4CCCC4)noc2-3)cc1 | 3.27 µM |

tested on: NCI/ADR-RES; test: Antiproliferative activity against human NCI-ADR-RES cells assessed as cell growth inhibition incubated for 72 hrs by MTT assay; assay type: functional; conditions: not given

| SMILES | GI50 |
| --- | --- |
| COc1ccc(Cn2cc3c(c2-c2cc(OC)c(OC)c(OC)c2)CCc2c(CN4CCCC4)noc2-3)cc1 | 0.55 µM |

tested on: SK-OV-3; test: Antiproliferative activity against human SK-OV-3 cells assessed as cell growth inhibition incubated for 72 hrs by MTT assay; assay type: functional; conditions: not given

| SMILES | GI50 |
| --- | --- |
| COc1ccc(Cn2cc3c(c2-c2cc(OC)c(OC)c(OC)c2)CCc2c(CN4CCCC4)noc2-3)cc1 | 6.7 µM |

tested on: A498; test: Antiproliferative activity against human A498 cells assessed as cell growth inhibition incubated for 72 hrs by MTT assay; assay type: functional; conditions: not given

| SMILES | GI50 |
| --- | --- |
| COc1ccc(Cn2cc3c(c2-c2cc(OC)c(OC)c(OC)c2)CCc2c(CN4CCCC4)noc2-3)cc1 | 0.78 µM |

tested on: ACHN; test: Antiproliferative activity against human ACHN cells assessed as cell growth inhibition incubated for 72 hrs by MTT assay; assay type: functional; conditions: not given

| SMILES | GI50 |
| --- | --- |
| COc1ccc(Cn2cc3c(c2-c2cc(OC)c(OC)c(OC)c2)CCc2c(CN4CCCC4)noc2-3)cc1 | 0.63 µM |

tested on: RXF 393; test: Antiproliferative activity against human RXF 393 cells assessed as cell growth inhibition incubated for 72 hrs by MTT assay; assay type: functional; conditions: not given

| SMILES | GI50 |
| --- | --- |
| COc1ccc(Cn2cc3c(c2-c2cc(OC)c(OC)c(OC)c2)CCc2c(CN4CCCC4)noc2-3)cc1 | 0.89 µM |

tested on: SN12C; test: Antiproliferative activity against human SN12C cells assessed as cell growth inhibition incubated for 72 hrs by MTT assay; assay type: functional; conditions: not given

| SMILES | GI50 |
| --- | --- |
| COc1ccc(Cn2cc3c(c2-c2cc(OC)c(OC)c(OC)c2)CCc2c(CN4CCCC4)noc2-3)cc1 | 4.43 µM |

tested on: TK-10; test: Antiproliferative activity against human TK-10 cells assessed as cell growth inhibition incubated for 72 hrs by MTT assay; assay type: functional; conditions: not given

| SMILES | GI50 |
| --- | --- |
| COc1ccc(Cn2cc3c(c2-c2cc(OC)c(OC)c(OC)c2)CCc2c(CN4CCCC4)noc2-3)cc1 | 23.4 µM |

tested on: UO-31; test: Antiproliferative activity against human UO-31 cells assessed as cell growth inhibition incubated for 72 hrs by MTT assay; assay type: functional; conditions: not given

| SMILES | GI50 |
| --- | --- |
| COc1ccc(Cn2cc3c(c2-c2cc(OC)c(OC)c(OC)c2)CCc2c(CN4CCCC4)noc2-3)cc1 | 1.16 µM |

tested on: PC-3; test: Antiproliferative activity against human PC-3 cells assessed as cell growth inhibition incubated for 72 hrs by MTT assay; assay type: functional; conditions: not given

| SMILES | GI50 |
| --- | --- |
| COc1ccc(Cn2cc3c(c2-c2cc(OC)c(OC)c(OC)c2)CCc2c(CN4CCCC4)noc2-3)cc1 | 0.64 µM |

tested on: DU-145; test: Antiproliferative activity against human DU-145 cells assessed as cell growth inhibition incubated for 72 hrs by MTT assay; assay type: functional; conditions: not given

| SMILES | GI50 |
| --- | --- |
| COc1ccc(Cn2cc3c(c2-c2cc(OC)c(OC)c(OC)c2)CCc2c(CN4CCCC4)noc2-3)cc1 | 4 µM |

tested on: MCF7; test: Antiproliferative activity against human MCF7 cells assessed as cell growth inhibition incubated for 72 hrs by MTT assay; assay type: functional; conditions: not given

| SMILES | GI50 |
| --- | --- |
| COc1ccc(Cn2cc3c(c2-c2cc(OC)c(OC)c(OC)c2)CCc2c(CN4CCCC4)noc2-3)cc1 | 0.33 µM |

tested on: MDA-MB-231; test: Antiproliferative activity against human MDA-MB-231 cells assessed as cell growth inhibition incubated for 72 hrs by MTT assay; assay type: functional; conditions: not given

| SMILES | GI50 |
| --- | --- |
| COc1ccc(Cn2cc3c(c2-c2cc(OC)c(OC)c(OC)c2)CCc2c(CN4CCCC4)noc2-3)cc1 | 3.05 µM |

tested on: BT-549; test: Antiproliferative activity against human BT-549 cells assessed as cell growth inhibition incubated for 72 hrs by MTT assay; assay type: functional; conditions: not given

| SMILES | GI50 |
| --- | --- |
| COc1ccc(Cn2cc3c(c2-c2cc(OC)c(OC)c(OC)c2)CCc2c(CN4CCCC4)noc2-3)cc1 | 2.47 µM |

tested on: T47D; test: Antiproliferative activity against human T47D cells assessed as cell growth inhibition incubated for 72 hrs by MTT assay; assay type: functional; conditions: not given

| SMILES | GI50 |
| --- | --- |
| COc1ccc(Cn2cc3c(c2-c2cc(OC)c(OC)c(OC)c2)CCc2c(CN4CCCC4)noc2-3)cc1 | 2.65 µM |

tested on: VL51; test: Antiproliferative activity against human VL51 cells assessed as proliferating cells at 1 uM incubated for 72 hrs by MTT assay relative to control; assay type: functional; conditions: not given

| SMILES | Activity |
| --- | --- |
| COc1ccc(Cn2cc3c(c2-c2cc(OC)c(OC)c(OC)c2)CCc2c(CN4CCCC4)noc2-3)cc1 | 57% |

tested on: SU-DHL10; test: Antiproliferative activity against human SU-DHL-10 cells assessed as proliferating cells at 1 uM incubated for 72 hrs by MTT assay relative to control; assay type: functional; conditions: not given

| SMILES | Activity |
| --- | --- |
| COc1ccc(Cn2cc3c(c2-c2cc(OC)c(OC)c(OC)c2)CCc2c(CN4CCCC4)noc2-3)cc1 | 0.3% |

tested on: VL51; test: Antiproliferative activity against human VL51 cells assessed as inhibition of cell proliferation incubated for 72 hrs by MTT assay; assay type: functional, cell-based; conditions: VL51, 72 h

| SMILES | IC50 |
| --- | --- |
| COc1ccc(Cn2cc3c(c2-c2cc(OC)c(OC)c(OC)c2)CCc2c(CN4CCCC4)noc2-3)cc1 | 0.15 µM |

tested on: not listed separately; test: Antiproliferative activity against human MINO cells assessed as inhibition of cell proliferation incubated for 72 hrs by MTT assay; assay type: functional, cell-based; conditions: not given

| SMILES | IC50 |
| --- | --- |
| COc1ccc(Cn2cc3c(c2-c2cc(OC)c(OC)c(OC)c2)CCc2c(CN4CCCC4)noc2-3)cc1 | 0.5 µM |

tested on: not listed separately; test: Antiproliferative activity against human HBL1 cells assessed as inhibition of cell proliferation incubated for 72 hrs by MTT assay; assay type: functional, cell-based; conditions: HBL1, 72 h

| SMILES | IC50 |
| --- | --- |
| COc1ccc(Cn2cc3c(c2-c2cc(OC)c(OC)c(OC)c2)CCc2c(CN4CCCC4)noc2-3)cc1 | 0.6 µM |

tested on: SU-DHL10; test: Antiproliferative activity against human SU-DHL-10 cells assessed as inhibition of cell proliferation incubated for 72 hrs by MTT assay; assay type: functional, cell-based; conditions: SU-DHL10, 72 h

| SMILES | IC50 |
| --- | --- |
| COc1ccc(Cn2cc3c(c2-c2cc(OC)c(OC)c(OC)c2)CCc2c(CN4CCCC4)noc2-3)cc1 | 0.7 µM |

Source: ChEMBL document CHEMBL5352447, “Development of [1,2]oxazoloisoindoles tubulin polymerization inhibitors: Further chemical modifications and potential therapeutic effects against lymphomas” (Eur J Med Chem, 2022)
